Laboratory results published in article PMC3792221 (Biomolecules & Therapeutics, 2012).

Experiments:
[1] = test system: neural stem cells; conditions: ref Guan et al., 2009; cited from earlier work
[2] = target: T1, bovine adrenal DBH (Bos taurus, UniProt P15101); test: DBH inhibition assay in vitro; assay type: biochemical
T1 sequence (P15101 1-610): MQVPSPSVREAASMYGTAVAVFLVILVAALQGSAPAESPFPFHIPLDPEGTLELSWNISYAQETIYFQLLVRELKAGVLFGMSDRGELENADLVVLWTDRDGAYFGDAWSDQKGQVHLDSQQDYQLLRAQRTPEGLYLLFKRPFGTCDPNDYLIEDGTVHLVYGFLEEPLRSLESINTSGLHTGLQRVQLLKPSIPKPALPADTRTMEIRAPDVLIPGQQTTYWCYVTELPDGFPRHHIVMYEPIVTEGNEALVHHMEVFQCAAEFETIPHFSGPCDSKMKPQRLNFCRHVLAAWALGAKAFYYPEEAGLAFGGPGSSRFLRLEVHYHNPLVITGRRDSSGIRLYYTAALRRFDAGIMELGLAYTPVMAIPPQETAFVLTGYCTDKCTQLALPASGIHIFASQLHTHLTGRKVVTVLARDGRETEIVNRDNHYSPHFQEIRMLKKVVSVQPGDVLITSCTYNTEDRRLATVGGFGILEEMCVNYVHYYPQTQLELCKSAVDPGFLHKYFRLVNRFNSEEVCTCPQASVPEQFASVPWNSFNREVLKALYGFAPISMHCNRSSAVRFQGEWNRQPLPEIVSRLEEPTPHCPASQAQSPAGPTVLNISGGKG

[3] = target: T2, MAO-A (rat brain mitochondrial MAO) (Rattus norvegicus, UniProt P21396); test: MAO-A inhibition assay in vitro; assay type: biochemical
T2 sequence (P21396 1-526): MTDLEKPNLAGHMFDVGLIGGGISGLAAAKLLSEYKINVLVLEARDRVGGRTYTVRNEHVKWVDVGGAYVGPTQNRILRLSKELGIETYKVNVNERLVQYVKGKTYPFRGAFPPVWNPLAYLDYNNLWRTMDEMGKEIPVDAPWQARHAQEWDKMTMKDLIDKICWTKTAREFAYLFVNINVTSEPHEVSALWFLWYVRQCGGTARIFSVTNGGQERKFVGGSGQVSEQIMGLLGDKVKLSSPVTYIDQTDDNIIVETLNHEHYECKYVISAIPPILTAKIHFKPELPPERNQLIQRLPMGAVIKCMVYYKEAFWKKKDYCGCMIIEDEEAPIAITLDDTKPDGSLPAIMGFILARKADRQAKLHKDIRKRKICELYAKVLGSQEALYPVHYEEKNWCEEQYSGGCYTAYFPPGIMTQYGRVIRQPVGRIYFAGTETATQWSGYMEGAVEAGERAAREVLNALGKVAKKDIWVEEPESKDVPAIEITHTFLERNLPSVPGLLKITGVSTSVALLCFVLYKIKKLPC

[4] = target: T3, MAO-B (rat liver mitochondrial MAO) (Rattus norvegicus, UniProt P19643); test: MAO-B inhibition assay in vitro; assay type: biochemical
T3 sequence (P19643 1-520): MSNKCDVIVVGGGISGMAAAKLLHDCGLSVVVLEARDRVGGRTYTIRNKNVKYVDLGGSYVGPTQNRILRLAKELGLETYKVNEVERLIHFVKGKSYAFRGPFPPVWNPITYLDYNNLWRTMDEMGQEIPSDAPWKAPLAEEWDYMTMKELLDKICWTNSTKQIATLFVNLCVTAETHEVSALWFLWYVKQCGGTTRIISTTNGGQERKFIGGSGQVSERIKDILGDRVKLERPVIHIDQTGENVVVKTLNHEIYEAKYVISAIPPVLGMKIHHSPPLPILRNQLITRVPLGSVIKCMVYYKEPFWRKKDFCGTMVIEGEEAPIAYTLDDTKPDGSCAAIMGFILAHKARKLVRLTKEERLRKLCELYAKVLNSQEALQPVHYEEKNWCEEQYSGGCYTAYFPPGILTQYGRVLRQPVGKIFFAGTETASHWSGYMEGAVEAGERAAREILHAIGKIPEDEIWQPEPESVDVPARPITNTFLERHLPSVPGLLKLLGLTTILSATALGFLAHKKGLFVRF

[5] = isolated geniposide; ref Hou et al., 2008; Lu et al., 2011; cited from earlier work
[6] = IC50 value DBH, Table 1, 120 mM tyramine substrate
[7] = read-out: DBH inhibitory activity
[8] = IC50 value MAO-A, Table 1, 1 mM serotonin substrate
[9] = read-out: MAO-A inhibitory activity
[10] = read-out: MAO-B inhibitory activity

## O=C(O)c1ccc(O)c(O)c1 [Compound 1, protocatechuic acid]
[1]
  Apoptosis of neural stem cells: inhibit apoptosis
  Proliferation of neural stem cells: increase proliferation
[2]; [6]
  IC50: 334 µM
[2]; [7]
  inhibition at 50 µg/mL: 49.2 ± 3.1%
  inhibition at 100 µg/mL: 64.1 ± 6.8%
  inhibition at 500 µg/mL: 97.2 ± 2%
[3]; IC50 MAO-A (abstract)
  IC50: 2410 µM
[3]; [8]
  IC50: 2410 µM
[3]; [9]
  inhibition at 50 µg/mL: 7.3 ± 2.6%
  inhibition at 100 µg/mL: 12.8 ± 4.8%
  inhibition at 500 µg/mL: 67.4 ± 5.2%
[4]
  IC50: 300 µM
[4]; from Table 1
  Specific activity on MAO-B relative to that on MAO-A: about 8 times
[4]; [10]
  inhibition at 50 µg/mL: 50.4 ± 5.9%
  inhibition at 100 µg/mL: 71.6 ± 9.3%
  inhibition at 500 µg/mL: 108 ± 1.3%

## COC(=O)C1=CO[C@@H](O[C@@H]2O[C@H](CO)[C@@H](O)[C@H](O)[C@H]2O)[C@@H]2C(CO)=CC[C@H]12 [Compound 2, geniposide]
[2]; [6]
  IC50: > 12900 µM
[5]
  Absorption percentage: very low
[3]; [8]
  IC50: > 12900 µM
[4]
  IC50: 223 µM
[4]; [10]
  inhibition at 4 µg/mL: 9.2 ± 1.2%
  inhibition at 20 µg/mL: 16 ± 0.6%
  inhibition at 50 µg/mL: 42.8 ± 2.2%
  inhibition at 100 µg/mL: 52.2 ± 1.5%

## C[C@H]1[C@H](C)CC[C@]2(C(=O)O)CC[C@]3(C)C(=CC[C@@H]4[C@@]5(C)CC[C@H](O)C(C)(C)[C@@H]5CC[C@]43C)[C@H]12 [Compound 5, ursolic acid]
[2]; IC50 DBH
  IC50: 215 µM
[2]; [6]
  IC50: 214 µM
[2]; [7]
  inhibition at 2 µg/mL: 18.2 ± 7.6%
  inhibition at 10 µg/mL: 20.8 ± 10.7%
  inhibition at 50 µg/mL: 33.2 ± 6.9%
  inhibition at 100 µg/mL: 51.2 ± 5.9%
[3]
  MAO-A inhibition (in words): no inhibition
[3]; [8]
  IC50: > 11000 µM
[4]
  IC50: 780 µM
[4]; [10]
  inhibition at 50 µg/mL: 17.1 ± 1.1%
  inhibition at 100 µg/mL: 28.7 ± 8%
